37 compounds from the OPERA property sets (Mansouri et al. 2018) can be followed below.

In general, logP refers to a log measure of how a compound divides between an organic and an aqueous phase. Read a low logP as a more hydrophilic compound.

In turn, `COc1cccc(C=CC(C)=O)c1` registered a logP of 2.27.
For `CC(=O)C=Cc1ccc(C(F)(F)F)cc1` the value was 3.13; for `CC(=O)C=Cc1cccc(C)c1`, 2.68; for `CC(=O)C=Cc1ccccc1C(F)(F)F`, 3.14.
Compound `CCOc1ccc(C=CC(C)=O)cc1` yielded a logP of 2.73.
For `COc1cccc(C=CC(=O)C(F)(F)F)c1` the value was 3.05; for `CC(=O)C=Cc1ccc(C#N)cc1`, 1.64.
For `CC(=O)C=Cc1ccc(C)cc1` the value was 2.65; for `CC(=O)C=Cc1ccc(F)cc1`, 2.22; for `CC(=O)C=Cc1ccc([N+](=O)[O-])cc1`, 1.9.
For `COc1ccc(C=CC(C)=O)cc1` the value was 2.25; for `COc1ccc(C=CC(=O)C(F)(F)F)cc1`, 3.33; for `CC(=O)C=Cc1cccc([N+](=O)[O-])c1`, 1.88.
On to `CC(=O)C=Cc1ccc(N(C)C)cc1`, for which the lipophilicity (logP) turned out to be 2.66.
For `CCc1ccc(C=CC(C)=O)cc1` the value was 3.26; for `CC(=O)C=Cc1cccc(C(F)(F)F)c1`, 3.03.
To `CC(=O)C=Cc1cccc(F)c1` belongs 2.25; to `O=C(C=Cc1ccc(Cl)cc1)C(F)(F)F`, 3.63; to `CC(=O)C=Cc1cccc(Br)c1`, 3.02.
To `CC(=O)C=Cc1ccccc1F` belongs 2.34.
Regarding `CC(=O)C=Cc1ccccc1O`, the log partition coefficient (logP) was 2.19.
Consider `CC(=O)C=Cc1cccc(Cl)c1`, for which the logP was determined as 2.81.
For `O=C(C=Cc1ccccc1Cl)C(F)(F)F`, the logP is 3.5.
Compound `O=C(C=Cc1cccc(Cl)c1)C(F)(F)F` had a logP of 3.58.
`O=C(C=Cc1cccc([N+](=O)[O-])c1)C(F)(F)F` showed a lipophilicity (logP) of 2.66.
Consider `CC(=O)C=Cc1ccc(Cl)cc1`, for which the log partition coefficient (logP) stood at 2.8.
With `CC(=O)C=Cc1ccccc1C`, the logP is 2.6.
`N#Cc1ccc(C=CC(=O)C(F)(F)F)cc1` showed a logP of 2.42.
For `COc1ccccc1C=CC(=O)C(F)(F)F` the value was 3.39.
On to `O=C(C=Cc1ccccc1)C(F)(F)F`, for which the logP amounted to 3.01.
As for `COc1ccccc1C=CC(C)=O`, the logP amounted to 2.42.
Consider `CC(=O)C=Cc1ccc(O)cc1`, for which the logP was found to be 1.86.
To `CC(=O)C=Cc1ccc(OC(C)=O)cc1` belongs 1.63; to `N#Cc1cccc(C=CC(=O)C(F)(F)F)c1`, 2.45; to `CC(=O)C=Cc1ccccc1Cl`, 2.85.
To `CC(=O)C=Cc1cccc(C#N)c1` belongs 1.59; to `CC(=O)C=Cc1ccc(Br)cc1`, 3.03.
